Measured values as given in patent US20250230138A1, “COMPOUNDS HAVING A T-STRUCTURE FORMED BY AT LEAST FOUR CYCLES FOR USE IN THE TREATMENT OF CANCER AND OTHER INDICATIONS” (TheRas, Inc., priority 2022, published 2025).
pIC50: −log10 of the molar value. Read-outs that look alike come from different tables or passages of the source.

Key:
pAKT in BT474 cells = assay: Cell-based pAKT HTRF assay in BT474 cells; settings: BT474 cells, 4 hr incubation, Compounds 10-999, read-out: pAKT inhibition IC50 in BT474 cells
In short: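 BT474 cells in DMEM/10% FBS were treated the day after seeding with a 9-point, 3-fold compound series from 3 μM (0.25% DMSO) for 4 hr. Lysates were mixed with d2 and Eu cryptate anti-pAKT antibodies and incubated 4-24 h at room temperature. HTRF was read with excitation at 320 nm and emission at 615 nm.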

[1] = target: Cys242 in human PIK3CA (157-299) (Homo sapiens (Human), UniProt P42336); assay: Covalent modification assay using MALDI-TOF MS; type: biochemical; settings: 4 h reaction time point; 3.33 μM protein target, 1:7.5 protein to compound ratio (compounds 1-852)
In short: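 Covalent adduct formation was read by linear-mode MALDI-TOF with sinapinic acid matrix, reported as modified-protein peak height divided by total protein peak heights. Reactions held PIK3CA (157-299) at 1 or 3.33 μM in HEPES/NaCl/MgCl2 buffer, pH 7.3, sampled after 15 min to 4 h at room temperature.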

Chain of Cys242 in human PIK3CA (157-299) (P42336 157-299): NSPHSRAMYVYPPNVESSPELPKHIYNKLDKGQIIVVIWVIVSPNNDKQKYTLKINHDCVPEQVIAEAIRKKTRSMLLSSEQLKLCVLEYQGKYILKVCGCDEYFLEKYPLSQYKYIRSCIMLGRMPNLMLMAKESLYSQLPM

pIC50 (pAKT in BT474 cells) | pIC50 (pAKT in BT474 cells; Homo sapiens, BT-474) | SMILES | % of modification [1]
6.00 to 7.00 |  | C=CC(=O)N1CCc2nc(-c3nc(-c4cccc(C(C)(C)C#N)c4)c4ccsc4c3-c3c(F)cc(F)cc3OCCOC)sc2C1 [Compound 440] | D (percent of modification <25%)
6.00 to 7.00 |  | C=CC(=O)N1CCc2nc(-c3nc(-c4ccc(C(C)(C)N)cc4)c4ccsc4c3-c3c(F)cc(F)cc3OCCOC)sc2C1 [Compound 443] | A (percent of modification of PIK3CA protein ≥75%)
6.00 to 7.00 |  | C=CC(=O)N1CCc2nc(-c3nc(-c4ccc(C(C)(C)O)nc4)c4ccsc4c3-c3c(F)cc(F)cc3OCCOC)sc2C1 [Compound 445] | A (percent of modification of PIK3CA protein ≥75%)
> 7.00 |  | C=CC(=O)N1CCc2nc(-c3nc(-c4cnc5c(c4)CNC(=O)C5)c4ccsc4c3-c3c(F)cc(F)cc3OCCOC)sc2C1 [Compound 446] | A (percent of modification of PIK3CA protein ≥75%)
 | > 7.00 | C=CC(=O)N1CCc2cnc(-c3nc(-c4ccc5c(c4)CNC5=O)c4ccsc4c3-c3c(F)cc(F)cc3OC(C)C)cc2C1 [Compound 453, 5-[7-(2,4-difluoro-6-isopropoxy-phenyl)-6-(6-prop-2-enoyl-7,8-dihydro-5H-2,6-naphthyridin-3-yl)thieno[3,2-c]pyridin-4-yl]isoindolin-1-one] | A (percent of modification of PIK3CA protein ≥75%)
> 7.00 |  | C=CC(=O)N1CCc2ncc(-c3nc(-c4cnc(C)o4)c4ccsc4c3-c3c(F)cc(F)cc3OC(C)C)cc2C1 [Compound 455] | A (percent of modification of PIK3CA protein ≥75%)
< 5.52 |  | C=CC(=O)N1Cc2cc(-c3nc(-c4cnn(C)c4)c4ccsc4c3-c3c(F)cc(F)cc3OC(C)C)nn2C[C@H]1C [Compound 456, 1-((R)-2-((R)-7-(2,4-difluoro-6-isopropoxyphenyl)-4-(1-methyl-1H-pyrazol-4-yl)thieno[3,2-c]pyridin-6-yl)-6-methyl-6,7-dihydropyrazolo[1,5-a]pyrazin-5(4H)-yl)prop-2-en-1-one] | D (percent of modification <25%)
> 7.00 |  | C=CC(=O)N1Cc2cc(-c3nc(-c4cnn(C)c4)c4ccsc4c3-c3c(F)cc(F)cc3OC(C)C)nn2C[C@H]1C [Compound 457, 1-((R)-2-((S)-7-(2,4-difluoro-6-isopropoxyphenyl)-4-(1-methyl-1H-pyrazol-4-yl)thieno[3,2-c]pyridin-6-yl)-6-methyl-6,7-dihydropyrazolo[1,5-a]pyrazin-5(4H)-yl)prop-2-en-1-one] | A (percent of modification of PIK3CA protein ≥75%)
6.00 to 7.00 |  | C=CC(=O)N1CCc2nc(-c3nc(-c4cnn(C)c4)c4ccsc4c3-c3c(F)cc(Cl)cc3OCCOC)sc2C1 [Compound 464] | A (percent of modification of PIK3CA protein ≥75%)
6.00 to 7.00 |  | C=CC(=O)N1CCc2nc(-c3nc(-c4ccc5c(c4)CCNC5)c4ccsc4c3-c3c(F)cc(Cl)cc3OCCOC)sc2C1 [Compound 465] | A (percent of modification of PIK3CA protein ≥75%)
> 7.00 |  | C=CC(=O)N1Cc2cc(-c3nc(-c4cnn(C)c4)c4ccsc4c3-c3c(F)cc(F)cc3OCCOC)nn2CC1C (stereo not shown) [Compound 469] | A (percent of modification of PIK3CA protein ≥75%)
6.00 to 7.00 |  | C=CC(=O)N1CCc2nc(-c3nc(-c4ccc5c(c4)CCN(C)C5)c4ccsc4c3-c3c(F)cc(F)cc3OCC(F)F)sc2C1 [Compound 470] | A (percent of modification of PIK3CA protein ≥75%)
6.00 to 7.00 |  | C=C(F)C(=O)N1CCn2nc(-c3nc(-c4ccc5c(c4)CNC5=O)c4ccsc4c3-c3c(Cl)cccc3OC(C)C)cc2C1 [Compound 472] | B (50%<percent of modification <75%)
6.00 to 7.00 |  | C=C(F)C(=O)N1Cc2cc(-c3nc(-c4ccc5c(c4)CCN(C)C5)c4ccsc4c3-c3c(F)cc(F)cc3OC(C)C)nn2CC1C (stereo not shown) [Compound 473] | D (percent of modification <25%)
> 7.00 |  | C=CC(=O)N1Cc2cc(-c3nc(-c4ccc5c(c4)CN(C)C5=O)c4ccsc4c3-c3c(F)cc(F)cc3OCCOC)nn2CC1C (stereo not shown) [Compound 474] | A (percent of modification of PIK3CA protein ≥75%)
< 5.52 |  | C=CC(=O)N1CCc2nc(-c3nc(-c4ccc5c(c4)CCN(C)C5)c4ccsc4c3-c3c(F)cc(F)cc3OC(F)F)sc2C1 [Compound 475] | B (50%<percent of modification <75%)

pIC50 (pAKT in BT474 cells) | pIC50 (pAKT in BT474 cells; Homo sapiens, BT-474) | SMILES | % of modification [1]
 | 6.00 to 7.00 | C=CC(=O)N1Cc2cc(-c3nc(-c4ccc5c(c4)CCN(C)C5)c4ccsc4c3-c3c(F)cc(F)cc3OC(C)C)cnc2C[C@H]1C [Compound 476, 1-((7R)-3-(7-(2,4-difluoro-6-isopropoxyphenyl)-4-(2-methyl-1,2,3,4-tetrahydroisoquinolin-6-yl)thieno[3,2-c]pyridin-6-yl)-7-methyl-7,8-dihydro-1,6-naphthyridin-6(5H)-yl)prop-2-en-1-one] | A (percent of modification of PIK3CA protein ≥75%)
6.00 to 7.00 |  | C=CC(=O)N1Cc2cc(-c3nc(-c4ccc5c(c4)CCN(C)C5)c4ccsc4c3-c3c(F)cc(F)cc3OC(C)C)nn2C[C@H]1C [Compound 478, 1-((R)-2-((R)-7-(2,4-difluoro-6-isopropoxyphenyl)-4-(2-methyl-1,2,3,4-tetrahydroisoquinolin-6-yl)thieno[3,2-c]pyridin-6-yl)-6-methyl-6,7-dihydropyrazolo[1,5-a]pyrazin-5(4H)-yl)prop-2-en-1-one] | D (percent of modification <25%)
> 7.00 |  | C=CC(=O)N1Cc2cc(-c3nc(-c4ccc5c(c4)CCN(C)C5)c4ccsc4c3-c3c(F)cc(F)cc3OC(C)C)nn2C[C@H]1C [Compound 479, 1-((R)-2-((S)-7-(2,4-difluoro-6-isopropoxyphenyl)-4-(2-methyl-1,2,3,4-tetrahydroisoquinolin-6-yl)thieno[3,2-c]pyridin-6-yl)-6-methyl-6,7-dihydropyrazolo[1,5-a]pyrazin-5(4H)-yl)prop-2-en-1-one] | A (percent of modification of PIK3CA protein ≥75%)
 | > 7.00 | C=CC(=O)N1[C@H](C)Cn2nc(-c3nc(-c4ccc5c(c4)CCN(C)C5)c4ccsc4c3-c3c(F)cc(F)cc3OCCOC)cc2[C@@H]1C [Compound 480, 1-((4S,6R)-2-(7-(2,4-difluoro-6-(2-methoxyethoxy)phenyl)-4-(2-methyl-1,2,3,4-tetrahydroisoquinolin-6-yl)thieno[3,2-c]pyridin-6-yl)-4,6-dimethyl-6,7-dihydropyrazolo[1,5-a]pyrazin-5(4H)-yl)prop-2-en-1-one] | A (percent of modification of PIK3CA protein ≥75%)
> 7.00 |  | C=CC(=O)N1CCc2ccc(-c3nc(-c4cnc5c(c4)CNC(=O)C5)c4ccsc4c3-c3c(F)cc(F)cc3OCCOC)cc2C1 [Compound 482] | A (percent of modification of PIK3CA protein ≥75%)
> 7.00 |  | C=CC(=O)N1Cc2cc(-c3nc(-c4ccc5c(c4)CCN(C)C5)c4ccsc4c3-c3c(F)cc(F)cc3OCCO)nn2[C@@H](C)C1 [Compound 483] | A (percent of modification of PIK3CA protein ≥75%)
> 7.00 |  | C=CC(=O)N1Cc2cc(-c3nc(-c4ccc5c(c4)CCN(C)C5)c4ccsc4c3-c3c(F)cc(F)cc3OC)nn2C(C)C1 (stereo not shown) [Compound 484] | A (percent of modification of PIK3CA protein ≥75%)
> 7.00 |  | C=CC(=O)N1Cc2cc(-c3nc(-c4ccc5c(c4)CCN(C)C5)c4ccsc4c3-c3c(F)cc(F)cc3OCC)nn2C(C)C1 (stereo not shown) [Compound 485] | A (percent of modification of PIK3CA protein ≥75%)
> 7.00 |  | C=CC(=O)N1Cc2cc(-c3nc(-c4ccc5ncn(C)c5c4)c4ccsc4c3-c3c(F)cc(F)cc3OC(C)C)nn2CC1C (stereo not shown) [Compound 488] | A (percent of modification of PIK3CA protein ≥75%)
> 7.00 |  | C=CC(=O)N1Cc2cc(-c3nc(-c4cnn(CC(C)(C)O)c4)c4ccsc4c3-c3c(F)cc(F)cc3OC(C)C)nn2CC1C (stereo not shown) [Compound 490] | A (percent of modification of PIK3CA protein ≥75%)
> 7.00 |  | C=CC(=O)N1Cc2cc(-c3nc(-c4cnn(CC(C)(C)O)c4)c4ccsc4c3-c3c(F)cc(F)cc3OCCOC)nn2[C@@H](C)C1 [Compound 491] | A (percent of modification of PIK3CA protein ≥75%)
> 7.00 |  | C=CC(=O)N1Cc2cc(-c3nc(-c4cnn(CC(C)(C)O)c4)c4ccsc4c3-c3c(F)cc(F)cc3OC(C)C)nn2[C@@H](C)C1 [Compound 493] | A (percent of modification of PIK3CA protein ≥75%)
> 7.00 |  | C=CC(=O)N1Cc2cc(-c3nc(-c4ccc5c(c4)CN(C)C5=O)c4ccsc4c3-c3c(F)cc(F)cc3OCCO)nn2CC1C (stereo not shown) [Compound 494] | A (percent of modification of PIK3CA protein ≥75%)
> 7.00 |  | C=CC(=O)N1Cc2cc(-c3nc(-c4cnc5c(c4)CNC(=O)C5)c4ccsc4c3-c3c(F)cc(F)cc3OC(C)C)nn2CC1C (stereo not shown) [Compound 495] | A (percent of modification of PIK3CA protein ≥75%)
> 7.00 |  | C=CC(=O)N1Cc2cc(-c3nc(-c4cn(C)cn4)c4ccsc4c3-c3c(F)cc(F)cc3OC(C)C)nn2CC1C (stereo not shown) [Compound 496] | A (percent of modification of PIK3CA protein ≥75%)
> 7.00 |  | C=CC(=O)N1Cc2cc(-c3nc(-c4ccc5nc(C)oc5c4)c4ccsc4c3-c3c(F)cc(F)cc3OCCOC)nn2CC1C (stereo not shown) [Compound 497] | A (percent of modification of PIK3CA protein ≥75%)
